According to patent publication US9883691B2, “Food and beverage products containing 1,3-propanediol and methods of modifying flavor release using 1,3-propanediol” (Kraft Foods Group Brands LLC, priority 2012, dated 2018):

Experiments:
[1] = PTR-MS headspace release from stored beverages, water/solvent experiment (Example 4); type: physicochemical; conditions: beverage stored refrigerated; 1.5, 24, 48 and 72 hours; Tukey-Kramer
Description: 0.86 grams of the flavor concentrate was then added to 100 grams of either propylene glycol or 1,3-propanediol to provide diluted concentrates. […].
The beverages were then stored in sealed containers in a refrigerator. The container was opened five times over the course of the experiment and therefore represented a beverage in a sealed container being opened for multiple uses. 15 gram samples were weighed into a 4 ounce cup and analyzed at 1.5 hours, 24 hours, 48 hours, and 72 hours after storage.
The samples were analyzed in triplicate by PTR-MS as described below to determine impact of 1,3-propanediol or propylene glycol on release of the flavors from the beverage. The PTR-MS was performed as follows. A sampling apparatus was needed in conjunction with the PTR-MS inlet to prevent variations caused by headspace kinetics. The sampling apparatus used includes a 4 ounce sample vessel equipped with a 2-hole lid which may be sealed by an adhesive film to allow equilibration. […]. The holes were equal sized (˜2 mm diameter) and match the outer diameter of the PTR-MS inlet line. The flow of the dilution gas into the vessel was regulated by the vacuum and proportional valve of the PTR-MS inlet system. […] The 2 holes in the lid were equidistant from the edge of the vessel (˜20 mm) and ˜30 mm from each other. The PTR-MS inlet was braced by clamps in a fixed position vertically above the laboratory bench (˜55 mm) and a silicone rubber depth gauge was affixed to the PTR-MS inlet tubing and set at 18 mm. The PTR-MS inlet was consistently oriented in a vertical position […] below the inside lid of the vessel and 19 mm above the sample in the vessel. The sample vessel was then held in place during sampling according to the depth gauge on the inlet line and the vessel was subsequently supported on the bench by a 10 mm plastic spacer.
15 grams of the sample to be tested (e.g., food or beverage product containing 1,3-propanediol) are added to the vessel and the vessel is sealed and allowed to equilibrate at room temperature (˜22° C.) for 90 minutes. At the time of sampling, the seal was removed from both the sampling hole and the dilution gas hole in the lid and the vessel was immediately affixed to the PTR-MS inlet via the sampling hole. The real-time released flavor was measured from the headspace of the sample vessel for two minutes (according to the conditions listed in Table 1 above).
The data was analyzed using PTR-MS Viewer, Version 3.0.0.101 (Ionicon Analytik G.m.b.H). The point of maximum intensity for each compound of interest was determined and recorded according to the PTR-MS Viewer software. The maximum intensity in counts over the timescale for each compound of interest was used for data analysis as it reflected the static equilibrium headspace concentration in the system at the moment of seal removal. Due to the necessity of a dilution gas, the volatile concentration decreased over time as the compounds of interest re-equilibrated to a state of dynamic equilibrium in the headspace.
The statistical differences were determined by Tukey-Kramer Honest […]. […].

[2] = not marked (est); cited from earlier work

Row | SMILES | effect of 1,3-propanediol on flavor release relative to propylene glycol, water/solvent [1] | logP (o/w) [2]
1 | CC=O [Acetaldehyde] | released faster in propylene glycol | −0.16
2 | O=Cc1ccccc1 [Benzaldehyde] | significantly suppressed release | –
3 | CCCC(=O)OCC [Ethyl butyrate] | little effect | –
